{"source": "paper PMC10479830", "about": "“Nucleoside analogs NM107 and AT-527 are antiviral against rubella virus” (PNAS Nexus, 2023)", "key": {"rubella virus [1]": {"system": "rubella virus", "assay": "rubella virus infection of Jeg-3 cells, dose-response", "type": "cell-based", "conditions": "Rubella virus", "procedure": "Since rubella can cause congenital infections, we next developed assays in the human trophoblast cell line Jeg-3.\n(§1) A549 cells were plated in 384 well plates at 3,000 cells/well, HBMEC were plated at 7,000 cells/well, or Jeg-3 cells were plated at 3,000 cells/well in 20 μL growth media. The next day, 50 nL of drugs were added to assay wells, yielding a final concentration of 1 µM. The positive control nanchangmycin (n = 32) and the negative control DMSO (n = 32) were spotted on each assay plate. One hour later, cells were infected with rubella virus at a multiplicity of infection (MOI) = 0.234 for A549s, MOI = 0.1 for HBMEC, MOI = 0.05 for Jeg-3 cells). […] HBMECs were spin-infected by centrifuging at 1,250×g for 1 h at 25°C. Cells were fixed at 48 h post infection (hpi) in 4% formaldehyde/phosphate-buffered saline (PBS) for 15 min at room temperature and then washed twice with PBS. Cells were blocked with blocking buffer [2% bovine serum albumin in PBS with 0.1% Triton X-100 (PBST)]) for 1 h and incubated with primary antibody (mouse antirubella E1, CDC, 1 μg/mL) overnight at 4°C. Cells were washed three times with PBST and incubated in secondary (1:1000 antimouse Alexa Fluor 488 and 5 μg/mL Hoechst 33342) for 1 h at room temperature. Cells were washed three times with PBST and imaged using ImageXpress Micro (Molecular Devices). Cells were imaged with a 10× objective capturing four sites per well. The total number of cells and the percentage of infected cells were measured using the MetaXpress 5.3.3 cell scoring module. The aggregated percent infection of the DMSO and 2 µM nanchangmycin control wells on each assay plate were used to calculate Z′-factors. Sample well infection was normalized to aggregated DMSO plate control wells and expressed as percentage of control (POC = [%Infection sample/Average %Infection DMSO] × 100) and Z-score (Z = [%Infection sample − Average %Infection DMSO]/Standard Deviation %Infection DMSO) in Spotfire (PerkinElmer). Candidate hits were selected as compounds with POC <40% and viability >60%, compared with vehicle control.\n(§2) Drugs were purchased as powders from Selleckchem, MedchemExpress, and MedKoo and suspended in DMSO. Drugs were arrayed in 8-pt dose–response in 384 well plates. Infections were performed using the screening conditions. DMSO (n = 32) and 2 µM nanchangmycin (n = 16) were included on each validation plate as controls for normalization. Infection at each drug concentration was normalized to aggregated DMSO plate control wells and expressed as POC (POC = %Infection sample/Average %Infection DMSO cont). A nonlinear regression curve fit analysis (GraphPad Prism 8) was performed on POC infection and cell viability using log10 transformed concentration values to calculate IC50 values for infection and CC50 values for cell viability. SI was calculated as a ratio of the drug's CC50 and IC50 values (SI = CC50/IC50)."}, "rubella virus [2]": {"system": "rubella virus", "assay": "viral titers of Jeg-3 supernatants, TCID50 assay", "type": "cell-based", "conditions": "Jeg-3 cells, 10 μM, 48 hpi, below the limit of detection", "procedure": "(§3) A549 or Jeg-3 cells were plated, treated, and infected as for the qRT–PCR experiments. At 4 hpi, cells were washed twice with DPBS (Invitrogen) to remove any nonadsorbed virus and 2 mL of appropriate culture medium treated with vehicle or drug was added. At 48 hpi, cell supernatants were collected and titered by TCID50 assay.\n(§4) A549 cells were plated in 96 well plates at 25,000 cells/well and incubated overnight before inoculating with two-fold serial dilutions of viral stock or virus-containing supernatant to determine viral titer. At 24 hpi, plates were processed for microscopy and imaged as above. Titers were calculated using the Reed–Muench method ([26])."}, "rubella virus [3]": {"system": "rubella virus", "assay": "qRT-PCR of viral RNA in infected A549 cells", "type": "cell-based", "conditions": "10 µM, 48 h, vs vehicle", "procedure": "(§5) We next performed orthogonal assays to determine the magnitude of the inhibition of rubella infection upon treatment with either NM107 or AT-527. […] We also determined if these nucleoside analogs impacted virus production.\n(§6) A549 cells were plated in 6-well plates at 5 × 10^5 cells/well, HBMEC were plated at 6 × 10^5 cells/well, or Jeg-3 cells were plated at 5 × 10^5 cells/well. Twenty-four hours later, vehicle or drugs were added at the indicated concentrations. One hour later, cells were infected with rubella virus (MOI = 0.17 for A549s, MOI = 0.07 for HBMEC, MOI = 0.05 for Jeg-3 cells) and HBMEC were spin-infected by centrifuging at 1,250×g for 1 h at 25°C. […] At 48 hpi, total RNA was purified using Trizol (Invitrogen) followed by the RNA Clean and Concentrate kit (Zymo Research). cDNA synthesis was performed with random hexamers and Moloney murine leukemia virus reverse transcriptase (Invitrogen). Gene-specific primers to rubella RA27/3 NSP and GAPDH were used (Table S4). […] Relative quantities of viral and cellular RNA were calculated using a relative standard curve method where quantification was performed with respect to a 5-point standard curve generated from serial dilutions of a pooled reference generated by combining each sample cDNA for the experiment. […]"}, "rubella virus [4]": {"system": "rubella virus", "assay": "qRT-PCR of viral RNA in infected Jeg-3 cells", "type": "cell-based", "conditions": "10 μM, 48 h, vs vehicle", "procedure": "as §5, §6"}, "HCV [5]": {"system": "HCV", "set-up": "method as in PMID 31914458", "conditions": "cited from earlier work"}, "rubella RA27/3 virus": {"system": "rubella RA27/3 virus", "assay": "microbe, parasite or virus in culture", "type": "cell-based", "conditions": "for selectivity index (SI = CC50/IC50): A549 cells; for IC50: Rubella virus", "source_text": "(§7) We developed a high-throughput, high-content, cell-based assay to monitor rubella virus infection of the human respiratory cell line A549, as the respiratory tract is infected in humans. […] We infected A549 cells with the rubella virus vaccine strain (RA27/3) and monitored infection using an antibody to the viral glycoprotein E1 (Fig. 1A) ([13]). […] To evaluate the utility of nanchangmycin as a positive control for our assay development, we performed a dose–response assay for nanchangmycin using automated fluorescent microscopy to quantify the cell number as a surrogate for cell viability and percent infection (Fig. 1A).\nas §1, with “plate.” for “plate. One hour later, cells were infected with rubella virus at a multiplicity of infection (MOI) = 0.234 for A549s, MOI = 0.1 for HBMEC, MOI = 0.05 for Jeg-3 cells).”, “Cells were washed three times with PBST and incubated in secondary (1:1000 antimouse Alexa Fluor 488 and 5 μg/mL Hoechst 33342) for 1 h at room temperature.” left out\nas §2"}, "rubella virus [6]": {"system": "rubella virus", "assay": "viral titers of A549 supernatants, TCID50 assay", "type": "cell-based", "conditions": "A549 cells, 10 µM, 48 hpi, at the limit of detection", "procedure": "as §3, §4"}, "[7]": {"assay": "cell number (cell viability) in Jeg-3 cells", "type": "cell-based, human", "conditions": "human, Jeg-3 cells (infected with rubella virus)", "procedure": "as §1, with “The aggregated percent infection of the DMSO and 2 µM nanchangmycin control wells on each assay plate were used to calculate Z′-factors.” left out, “Candidate hits were selected as compounds with POC <40% and viability >60%, compared with vehicle control.” left out\n(§8) Drugs were purchased as powders from Selleckchem, MedchemExpress, and MedKoo and suspended in DMSO. […] Infection at each drug concentration was normalized to aggregated DMSO plate control wells and expressed as POC (POC = %Infection sample/Average %Infection DMSO cont). […] SI was calculated as a ratio of the drug's CC50 and IC50 values (SI = CC50/IC50)."}, "rubella virus [8]": {"system": "rubella virus", "assay": "rubella virus infection of HBMEC, dose-response", "type": "cell-based", "conditions": "Rubella virus", "procedure": "Rubella virus can infect diverse tissues in vivo, and viruses can show tissue-specific dependencies on host factors. […] First, we developed assays in human brain microvascular endothelial cells (HBMECs) as a model for endothelial cells. We again used nanchangmycin to optimize the assay (Fig. 3A and B).\nas §1, §2"}, "[9]": {"assay": "cell number (cell viability) in A549 cells, Hoechst 33342, automated microscopy", "type": "cell-based, human", "conditions": "human, A549 cells (infected with rubella virus RA27/3); A549 cells, cell number; read-out: half-maximal cytotoxicity concentration (CC50)", "source_text": "as §7, §1, §2"}, "[10]": {"set-up": "method as in PMID 16248033", "conditions": "cited from earlier work"}, "[11]": {"assay": "cell number (cell viability) in HBMEC", "type": "cell-based", "conditions": "human, HBMEC (infected with rubella virus)", "procedure": "A549 cells were plated in 384 well plates at 3,000 cells/well, HBMEC were plated at 7,000 cells/well, or Jeg-3 cells were plated at 3,000 cells/well in 20 μL growth media. The next day, 50 nL of drugs were added to assay wells, yielding a final concentration of 1 µM. The positive control nanchangmycin (n = 32) and the negative control DMSO (n = 32) were spotted on each assay plate. One hour later, cells were infected with rubella virus at a multiplicity of infection (MOI) = 0.234 for A549s, MOI = 0.1 for HBMEC, MOI = 0.05 for Jeg-3 cells). […] HBMECs were spin-infected by centrifuging at 1,250×g for 1 h at 25°C. […] The total number of cells and the percentage of infected cells were measured using the MetaXpress 5.3.3 cell scoring module. […] Sample well infection was normalized to aggregated DMSO plate control wells and expressed as percentage of control (POC = [%Infection sample/Average %Infection DMSO] × 100) and Z-score (Z = [%Infection sample − Average %Infection DMSO]/Standard Deviation %Infection DMSO) in Spotfire (PerkinElmer). […]\nas §8"}, "HCV [12]": {"system": "HCV", "set-up": "method as in PMID 16248033", "conditions": "reason for discontinuation; cited from earlier work"}, "rubella virus [13]": {"system": "rubella virus", "set-up": "method as in PMID 30680653, PMID 28974385", "conditions": "case study; cited from earlier work"}, "rubella virus [14]": {"system": "rubella virus", "set-up": "method as in PMID 30680653, PMID 28974385", "conditions": "cited from earlier work"}}, "note": "Where two headings read alike, the source gives them in different places."}
{"smiles": "CNc1nc(N)nc2c1ncn2[C@@H]1O[C@H](CO[P@@](=O)(N[C@@H](C)C(=O)OC(C)C)Oc2ccccc2)[C@@H](O)[C@@]1(C)F", "note": "[AT-527]", "values": [{"measurement": "IC50", "setting": "rubella virus [1]; JEG-3, read-out: IC50, rubella virus infection", "value": 0.01, "unit": "µM"}, {"measurement": "reduction of viral titers", "setting": "rubella virus [2]", "value": "~10,000 fold"}, {"measurement": "reduction in viral replication as measured by qRT-PCR", "setting": "rubella virus [3]", "value": "> 100", "unit": "fold"}, {"measurement": "reduction in viral RNA by qRT-PCR", "setting": "rubella virus [4]", "value": "> 100", "unit": "fold"}, {"measurement": "in vivo activity in a clinical trial", "setting": "HCV [5]; HCV infection", "value": "showed in vivo activity"}, {"measurement": "tolerability in clinical trial", "setting": "HCV [5]", "value": "well tolerated"}, {"measurement": "selectivity index (SI = CC50/IC50)", "setting": "rubella RA27/3 virus", "value": "> 9"}, {"measurement": "IC50", "setting": "rubella RA27/3 virus; A549, read-out: half-maximal inhibitory concentration (IC50), rubella virus infection", "value": 2.25, "unit": "µM"}, {"measurement": "reduction of viral titers", "setting": "rubella virus [6]", "value": "~100,000 fold"}]}
{"smiles": "C[C@@]1(O)[C@H](O)[C@@H](CO)O[C@H]1n1ccc(N)nc1=O", "note": "[NM107, 2′-C-methylcytidine]", "values": [{"measurement": "IC50", "setting": "rubella virus [1]; Jeg-3 cells, read-out: IC50, rubella virus infection", "value": 0.6, "unit": "µM"}, {"measurement": "CC50 at 48 h", "setting": "[7]", "value": "> 20", "unit": "µM"}, {"measurement": "reduction of viral titers", "setting": "rubella virus [2]", "value": "~10,000 fold"}, {"measurement": "IC50", "setting": "rubella virus [8]", "value": "< 0.01", "unit": "µM"}, {"measurement": "reduction in viral replication as measured by qRT-PCR", "setting": "rubella virus [3]", "value": "> 100", "unit": "fold"}, {"measurement": "CC50 at 48 h", "setting": "[9]", "value": "> 20", "unit": "µM"}, {"measurement": "reduction in viral RNA by qRT-PCR", "setting": "rubella virus [4]", "value": "> 100", "unit": "fold"}, {"measurement": "bioavailability", "setting": "[10]", "value": "low bioavailability"}, {"measurement": "CC50 at 48 h", "setting": "[11]", "value": "> 20", "unit": "µM"}, {"measurement": "selectivity index (SI = CC50/IC50)", "setting": "rubella RA27/3 virus", "value": "> 817"}, {"measurement": "IC50", "setting": "rubella RA27/3 virus; A549, read-out: IC50, rubella virus infection", "value": 0.02, "unit": "µM"}, {"measurement": "reduction of viral titers", "setting": "rubella virus [6]", "value": "~100,000 fold"}]}
{"smiles": "CC(C)[C@H](N)C(=O)O[C@@H]1[C@@H](CO)O[C@@H](n2ccc(N)nc2=O)[C@]1(C)O", "note": "[NM283]", "values": [{"measurement": "toxicity in clinical trials", "setting": "HCV [12]", "value": "gastrointestinal toxicity"}]}
{"smiles": "CC(=O)Oc1ccccc1C(=O)Nc1ncc([N+](=O)[O-])s1", "note": "[nitazoxanide]", "values": [{"measurement": "rubella virus antigen in patient (skin lesions)", "setting": "rubella virus [13]", "value": "reduced rubella antigen"}, {"measurement": "antiviral activity in cultured cells infected with rubella virus", "setting": "rubella virus [14]", "value": "showed antiviral activity"}]}
